Reference: patent US8017791B2, “Tri-substituted 2-benzhydryl-5-benzylamino-tetrahydro-pyran-4-ol and 6-benzhydryl-4-benzylamino-tetrahydro-pyran-3-ol analogues, and novel, 3,6-disubstituted pyran derivatives” (Wayne State University, priority 2003, dated 2011)
“Also recorded” adds a separate entry of the source. Like-named read-outs stand apart in the source and are kept apart here. One block for each compound: values may come before it.

Assays:
DAT [1] = target: T1, DAT (Rattus norvegicus, UniProt P23977); settings: Table 2; values marked b: See reference # 22; read-out: DAT binding, IC50, [3H]Win 35,428; cited from earlier work
T1 construct: rat striatum was the source for DAT, and cerebral cortex for SERT and NET; from tissue; P2 synaptosomal fraction for uptake
T1 sequence (P23977 whole entry): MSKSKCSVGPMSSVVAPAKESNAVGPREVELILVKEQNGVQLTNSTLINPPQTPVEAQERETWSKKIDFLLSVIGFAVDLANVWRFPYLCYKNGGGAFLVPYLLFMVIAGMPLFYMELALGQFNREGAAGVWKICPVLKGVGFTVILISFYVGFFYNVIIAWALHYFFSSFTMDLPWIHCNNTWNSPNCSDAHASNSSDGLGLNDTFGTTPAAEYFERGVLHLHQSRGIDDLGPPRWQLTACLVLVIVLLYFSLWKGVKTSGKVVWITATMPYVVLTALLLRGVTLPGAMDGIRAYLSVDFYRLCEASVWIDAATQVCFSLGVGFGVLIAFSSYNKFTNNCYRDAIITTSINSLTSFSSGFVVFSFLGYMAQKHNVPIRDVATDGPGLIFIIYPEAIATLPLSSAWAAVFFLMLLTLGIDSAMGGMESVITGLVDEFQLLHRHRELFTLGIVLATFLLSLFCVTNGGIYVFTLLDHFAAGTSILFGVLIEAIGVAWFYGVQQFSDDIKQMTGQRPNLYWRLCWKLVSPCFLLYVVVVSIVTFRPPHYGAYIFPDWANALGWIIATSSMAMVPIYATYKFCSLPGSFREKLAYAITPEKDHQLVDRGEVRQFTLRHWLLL

DAT [2] = target: T1, DAT; assay: Inhibition of [3H]WIN 35,428 binding to DAT
Description: (§1) Biology. […] Briefly, rat striatum was the source for DAT, and cerebral cortex for SERT and NET. […] Test compounds were dissolved in dimethyl sulfoxide (DMSO) and diluted out in 10% (v/v) DMSO. […] At least five triplicate concentrations of each test compound were studied, spaced evenly around the IC50 value. For DAT uptake assays, uptake of 50 nM [^3H]DA into rat striatal synaptosomes was measured exactly as described by us previously. Briefly, rat striatal P2 membrane fractions were incubated with test compounds for 8 min followed by the additional presence of [^3H]DA for 4 min at 25?. […] Construction of inhibition curves and dissolvement of test compounds were as described above.

NET [3] = assay: Inhibition of [3H]nisoxetine binding to NET; set-up: species or system rat; settings: Table 3; selectivity ratio of IC50 values
Description: as §1

NET [4] = target: NET (Rattus norvegicus, UniProt Q9WTR4); assay: Inhibition of [3H]nisoxetine binding to NET
Description: as §1

SERT [5] = target: T2, SERT (Rattus norvegicus, UniProt P31652); assay: Inhibition of [3H]citalopram binding to SERT; settings: for SERT binding/DAT binding: Table 3, selectivity ratio of IC50 values
T2 construct: rat striatum was the source for DAT, and cerebral cortex for SERT and NET; from tissue; host or cells: rat cerebral cortex
T2 sequence (P31652 whole entry): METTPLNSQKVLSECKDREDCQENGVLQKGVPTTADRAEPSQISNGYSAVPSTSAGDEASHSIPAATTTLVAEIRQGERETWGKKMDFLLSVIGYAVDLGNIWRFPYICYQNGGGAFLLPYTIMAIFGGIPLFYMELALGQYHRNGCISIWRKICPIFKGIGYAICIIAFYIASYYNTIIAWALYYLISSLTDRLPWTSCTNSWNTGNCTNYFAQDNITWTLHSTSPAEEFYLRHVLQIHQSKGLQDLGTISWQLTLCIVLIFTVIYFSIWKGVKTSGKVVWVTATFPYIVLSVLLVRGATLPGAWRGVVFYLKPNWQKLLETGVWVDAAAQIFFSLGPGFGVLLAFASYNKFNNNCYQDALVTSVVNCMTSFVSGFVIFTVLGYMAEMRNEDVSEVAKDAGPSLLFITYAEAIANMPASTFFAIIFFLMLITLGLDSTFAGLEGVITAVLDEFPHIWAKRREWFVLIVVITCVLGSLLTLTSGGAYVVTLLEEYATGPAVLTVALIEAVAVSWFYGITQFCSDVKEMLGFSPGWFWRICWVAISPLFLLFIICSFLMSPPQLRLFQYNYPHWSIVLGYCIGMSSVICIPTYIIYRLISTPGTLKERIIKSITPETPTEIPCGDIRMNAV
Description: as §1

DAT [6] = target: T1, DAT; assay: Inhibition of [3H]DA uptake by DAT into rat striatal synaptosomes; assay type: biochemical; settings: for [3H]DA uptake/DAT binding: Table 3, ratio of IC50 values
Description: as §1

NET (Rattus norvegicus) = target: T3, NET (Rattus norvegicus); assay: NET uptake inhibition, [3H]NE; assay type: biochemical; settings: Table 4; rat brain
T3 construct: from tissue
T3 sequence (Q63380 1-617): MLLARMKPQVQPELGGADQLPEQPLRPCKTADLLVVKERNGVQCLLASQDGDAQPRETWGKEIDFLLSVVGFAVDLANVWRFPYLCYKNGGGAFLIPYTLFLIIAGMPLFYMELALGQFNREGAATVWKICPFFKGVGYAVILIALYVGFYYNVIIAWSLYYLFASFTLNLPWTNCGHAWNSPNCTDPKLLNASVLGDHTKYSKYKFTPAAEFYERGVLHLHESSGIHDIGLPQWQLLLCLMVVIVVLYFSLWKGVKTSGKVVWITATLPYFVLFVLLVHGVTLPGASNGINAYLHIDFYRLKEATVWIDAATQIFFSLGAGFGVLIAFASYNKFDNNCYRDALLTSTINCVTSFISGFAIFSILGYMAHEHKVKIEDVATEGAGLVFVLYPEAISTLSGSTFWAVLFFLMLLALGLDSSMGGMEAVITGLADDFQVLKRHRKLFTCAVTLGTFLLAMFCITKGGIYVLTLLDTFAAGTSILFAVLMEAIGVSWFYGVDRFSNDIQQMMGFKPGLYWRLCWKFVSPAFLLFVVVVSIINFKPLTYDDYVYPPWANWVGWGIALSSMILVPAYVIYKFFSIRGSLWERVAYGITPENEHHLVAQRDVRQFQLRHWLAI

SERT [7] = target: T2, SERT; assay: SERT uptake inhibition, [3H]5-HT; assay type: biochemical; settings: for blockade of both SERT and NET (SNRI profile), in words: in vitro data
NET [8] = target: T4, NET (Rattus norvegicus, UniProt Q63380); assay: NET uptake inhibition, [3H]NE; assay type: biochemical; settings: in vitro data, Table 4
T4 construct: from tissue
T4 sequence (Q63380 1-617): as above

[9] = Table 2, average ± SEM, read-out: NET binding, IC50 [3H]nisoxetine
[10] = Table 2, average ± SEM, read-out: SERT binding, IC50 [3H]citalopram
[11] = Table 2, average ± SEM, read-out: DAT uptake, IC50 [3H]DA
[12] = Table 4, rat brain, read-out: DAT binding, IC50, [3H]Win 35,428
[13] = Table 4, rat brain, read-out: SERT uptake, IC50 [3H]5-HT
[14] = Table 4, rat brain, read-out: DAT uptake, IC50 [3H]DA

activity at DAT, in words (DAT [2]): much weaker at DAT
IC50 (DAT [2]; Table 1, rat striatum, read-out: Inhibition of [3H]Win 35,428 binding to DAT IC50): 313 ± 71 nM
NET binding/DAT binding (NET [3]): 40.6
IC50 (NET [4]; Table 1, read-out: Inhibition of [3H]nisoxetine binding to NET, IC50): 12.7 µM
IC50 (NET [4]; [9]): 12.7 µM
IC50 (SERT [5]; Table 1, read-out: Inhibition of [3H]citalopram binding to SERT, IC50): 8.41 µM
IC50 (SERT [5]; [10]): 8.41 µM
SERT binding/DAT binding (SERT [5]): 26.9
SMILES: Fc1ccc(CN[C@H]2CC[C@H](C(c3ccccc3)c3ccccc3)OC2)cc1 (relative stereo) [Compound 16a, trans-2-diphenylmethyl-5-(4-fluorobenzylamino)-tetrahydropyran]
IC50 (DAT [1]): 313 nM

IC50 (DAT [6]; [11]): 146 ± 36 nM
[3H]DA uptake/DAT binding (DAT [6]): 0.96
NET binding/DAT binding (NET [3]): 1.4
IC50 (NET [4]; [9]): 0.232 ± 0.046 µM
IC50 (SERT [5]; [10]): 1.86 µM
SERT binding/DAT binding (SERT [5]): 11.4
SMILES: Fc1ccc(CN[C@H]2CC[C@@H](C(c3ccccc3)c3ccccc3)OC2)cc1 (relative stereo) [Compound 16b, Cis-(6-benzhydryl-tetrahydropyran-3-yl)-(4-fluoro-benzyl)-amine]
IC50 (DAT [1]): 163 nM

SMILES: O=[N+]([O-])c1ccc(CN[C@H]2CC[C@@H](C(c3ccccc3)c3ccccc3)OC2)cc1 (relative stereo) [Compound 16d, Cis-(6-benzhydryl-tetrahydropyran-3-yl)-(4-nitro-benzyl)-amine]
IC50 (DAT [1]): 38.3 nM
activity at DAT, in words (DAT [2]): the most active for the DAT
IC50 (DAT [2]; read-out: IC50 at the DAT): 38.3 nM
potency in inhibiting binding versus uptake, in words (DAT [6]; DA uptake assay compared with DAT binding): three fold higher potency in inhibiting binding than uptake
IC50 (DAT [6]; [11]): 102 ± 7 nM
[3H]DA uptake/DAT binding (DAT [6]): 2.7

SMILES: O[C@H]1C[C@H](C(c2ccccc2)c2ccccc2)OC[C@@H]1NCc1ccc(F)cc1 [(+)-29b, (2R,4S,5S)-2-benzhydryl-5-(4-fluoro-benzylamino)-tetrahydro-pyran-4-ol]
IC50 (NET (Rattus norvegicus)): 1130 ± 580 nM
IC50 (DAT [2]): 1030 ± 120 nM
IC50 (SERT [7]): 5.56 ± 0.64 µM
IC50 (DAT [6]): 440 ± 30 nM

SMILES: O[C@H]1C[C@H](C(c2ccccc2)c2ccccc2)OC[C@@H]1NCCc1ccc(F)cc1 [(+)-29c, (2R,4S,5S)-2-benzhydryl-5-[2-(4-fluoro-phenyl)-ethylamino]-tetrahydropyran-4-ol]
IC50 (NET (Rattus norvegicus)): 77.3 ± 3 nM
IC50 (DAT [2]; [12]): 443 ± 52 nM
IC50 (SERT [7]; [13]): 2.95 ± 0.38 µM
IC50 (DAT [6]; [14]): 218 ± 20 nM

SMILES: COc1ccc(CN[C@H]2C[C@H](C(c3ccccc3)c3ccccc3)OC[C@H]2O)cc1 [(+)-29g, (3S,4S,6R)-6-benzhydryl-4-(4-methoxy-benzylamino)-tetrahydropyran-3-ol]
IC50 (NET (Rattus norvegicus)): 1840 ± 580 nM
IC50 (DAT [2]; [12]): 3750 ± 620 nM
IC50 (SERT [7]; [13]): 3.81 ± 0.46 µM
IC50 (DAT [6]; [14]): 2670 ± 260 nM

SMILES: O[C@@H]1CO[C@@H](C(c2ccccc2)c2ccccc2)C[C@@H]1NCc1ccccc1 [(+)-29h, (3S,4S,6R)-6-benzhydryl-4-benzylamino-tetrahydropyran-3-ol]
IC50 (NET (Rattus norvegicus)): 3220 ± 570 nM
IC50 (DAT [2]; [12]): 1250 ± 100 nM
IC50 (SERT [7]; [13]): 4.42 ± 0.41 µM
IC50 (DAT [6]; [14]): 962 ± 97 nM

SMILES: O[C@@H]1C[C@@H](C(c2ccccc2)c2ccccc2)OC[C@H]1NCc1ccc(F)cc1 [(−)-29b, (2S,4R,5R)-2-benzhydryl-5-(4-fluoro-benzylamino)-tetrahydro-pyran-4-ol]
IC50 (NET (Rattus norvegicus)): 13.3 ± 1 nM
selectivity for the NET (NRI profile), in words (NET [8]): selective blockers for NET
selectivity for the NET (NRI profile), in words (NET [8]; listed as (−)29b): more selective for the NET
IC50 (DAT [2]): 308 ± 25 nM
IC50 (SERT [7]): 0.676 ± 0.033 µM
IC50 (DAT [6]): 169 ± 20 nM

SMILES: O[C@@H]1C[C@@H](C(c2ccccc2)c2ccccc2)OC[C@H]1NCCc1ccc(F)cc1 [(−)-29c, (2S,4R,5R)-2-benzhydryl-5-[2-(4-fluoro-phenyl)-ethylamino]-tetrahydropyran-4-ol]
IC50 (NET (Rattus norvegicus)): 439 ± 14 nM
IC50 (DAT [2]; [12]): 1050 ± 40 nM
IC50 (SERT [7]; [13]): 3.57 ± 0.14 µM
IC50 (DAT [6]; [14]): 427 ± 67 nM

SMILES: COc1ccc(CN[C@@H]2CO[C@H](C(c3ccccc3)c3ccccc3)C[C@H]2O)c(OC)c1 [(−)-29e, (2S,4R,5R)-2-benzhydryl-5-(2,4-dimethoxy-benzylamino)-tetrahydropyran-4-ol]
IC50 (NET (Rattus norvegicus)): 115 ± 14 nM
IC50 (DAT [2]; [12]): 1060 nM
IC50 (SERT [7]; [13]): 0.024 ± 0.004 µM
blockade of both SERT and NET (SNRI profile), in words (SERT [7]; Table 4): dual transport blockers; also recorded: potent blockers for both SERT and NET
IC50 (DAT [6]; [14]): 710 ± 130 nM

SMILES: COc1cc(CN[C@@H]2CO[C@H](C(c3ccccc3)c3ccccc3)C[C@H]2O)cc(OC)c1 [(−)-29f, (2S,4R,5R)-2-benzhydryl-5-(3,5-dimethoxy-benzylamino)-tetrahydropyran-4-ol]
IC50 (NET (Rattus norvegicus)): 108 ± 11 nM
IC50 (DAT [2]; [12]): 298 ± 29 nM
IC50 (SERT [7]; [13]): 0.0254 ± 0.002 µM
blockade of both SERT and NET (SNRI profile), in words (SERT [7]; Table 4): potent blockers for both SERT and NET
blockade of both SERT and NET (SNRI profile), in words (SERT [7]; Table 4, listed as (−)29f): dual transport blockers
IC50 (DAT [6]; [14]): 135 ± 3 nM

SMILES: COc1ccc(CN[C@@H]2C[C@@H](C(c3ccccc3)c3ccccc3)OC[C@@H]2O)cc1 [(−)-29g, (3R,4R,6S)-6-benzhydryl-4-(4-methoxy-benzylamino)-tetrahydro-pyran-3-ol]
IC50 (NET (Rattus norvegicus)): 765 ± 34 nM
IC50 (DAT [2]; [12]): 771 ± 86 nM
IC50 (SERT [7]; [13]): 1.07 ± 0.1 µM
IC50 (DAT [6]; [14]): 822 ± 120 nM

SMILES: O[C@@H]1CO[C@H](C(c2ccccc2)c2ccccc2)C[C@H]1NCc1ccccc1 [(−)-29h, (3S,4R,6S)-6-benzhydryl-4-benzylamino-tetrahydropyran-3-ol]
IC50 (NET (Rattus norvegicus)): 336 ± 33 nM
IC50 (DAT [2]; [12]): 4640 ± 1030 nM
IC50 (SERT [7]; [13]): 10 µM
IC50 (DAT [6]; [14]): 2610 ± 140 nM

fold more active at DAT compared to the 3-substituted 16f (DAT [2]): 3.5 fold
IC50 (DAT [2]; read-out: IC50 at the DAT): 227 nM
IC50 (DAT [6]; [11]): 135 ± 47.5 nM
[3H]DA uptake/DAT binding (DAT [6]): 0.60
NET binding/DAT binding (NET [3]): 1.8
IC50 (NET [4]; read-out: IC50 for the NET): 0.401 µM
IC50 (SERT [5]; [10]): 1.64 µM
SERT binding/DAT binding (SERT [5]): 7.2
SMILES: c1ccc(C(c2ccccc2)C2CCC(NCc3cc4ccccc4[nH]3)CO2)cc1 (stereo not drawn) [Compound 16g, Cis-(6-benzhydryl-tetrahydropyran-3-yl)-(2-indole-methyl)-amine]
